Test results from patent US9988603B2, “Large scale generation of functional megakaryocytes and platelets from human embryonic stem cells under stromal-free conditions” (Stem Cell & Regenerative Medicine International, priority 2009, dated 2018).

Legend:
Format in all cases: cell-based, human
[1] = system: platelet integrin receptor; assay: Platelet spreading on immobilized fibrinogen and vWF; conditions: control plasma platelets and ES-PLTs on fibrinogen, stimulated with agonist
Procedure: Chamber slides with microtiter wells (Nalgen Nunc, Rochester, N.Y.) were coated with […] fibrinogen (Sigma) in 0.1M NaHCO3 (pH 8.3) at 4° C. overnight. Washed human peripheral platelets or hESC-platelets (1×10^7/mL) were allowed to adhere and spread on fibrinogen-coated wells at 37° C. for 90 minutes. In some samples, platelets were preincubated with an integrin antagonist, RGDS peptide, for 5 minutes before loading. In other samples, platelets were mixed with ADP (10 μM) or thrombin (1 U/ml) (Sigma-Aldrich, St Louis, Mo.), and immediately loaded on to fibrinogen-coated wells. […] Adherent platelets were viewed with an Olympus BX51 fluorescence microscope (MVI, Avon, Mass.) using a PlanApo lens at 100×/1.40 oil objective. […]
Integrin outside-in signaling functional property in ES-PLTs was further assessed by spreading assay on immobilized fibrinogen on glass slides. […]
Chamber slides with microtiter wells (Nalgen Nunc, Rochester, N.Y.) were coated with 100 μg/mL fibrinogen or vWF ([…]) (Sigma-Aldrich, St Louis, Mo.) in 0.1M NaHCO3 (pH 8.3) at 4° C. overnight. […] Adherent platelets were viewed with an Olympus BX51 fluorescence microscope using a PlanApo lens at 100×/1.40 oil objective. […]

hESC-PLTs = assay: CD41a/CD42b expression on hESC-PLTs generated under feeder-free conditions (FACS); conditions: GM6001 100 μM during late stage of differentiation
Procedure: To examine whether functional platelets were generated under feeder-free conditions, the inventors examined CD41a/CD42b expression on hESC-derived platelets (hESC-PLTs) by FACS analyses. […] However, less than 5% of these hESC-PLTs were CD42b positive. […] Supplement of GM6001 (100 μM) during late stage of human ESC-PLTs differentiation increased CD41a and CD42b double positive hESC-PLTs to about 15%. The function of feeder-free generated hESC-PLTs was assessed by integrin dependent spreading assay on immobilized fibrinogen and vWF. Anti-human CD41a antibody and DAPI staining were used to identify platelets.
Hemangioblast/BC generation from hESC lines (HuES-3, H7 [WA07], MA01, and MA09) was performed as previously reported^17:20. BCs from day 6 to 8 cultures were purified and plated (1 to 5×10^5/ml) in Stemline II media supplemented with 50 ng/ml TPO, 20 ng/ml SCF and 20 ng/ml IL-11 (Peprotech) to induce BC differentiation toward MKs. Half of the MK culture media was replaced with fresh media every 2 or 3 days. […]
Cells from blast cultures or MK cultures are monitored routinely by flow cytometry analyses on FACSCalibur (Becton Dickinson) or Accuri C6 Cytometer (Accuri Cytometers). […] The samples were then analyzed with FACSCalibur, and data analyzed using Cellquest or Flowjo software. […] Cellular DNA content was analyzed on an Accuri C6 cytometer.

[2] = system: CD41a+ megakaryocytes from hESC derived BCs; assay: Megakaryocyte (MK) differentiation/expansion culture from hESC derived blast cells, CD41a+ cell count; conditions: for yields / expansion of CD41a+ megakaryocytes: serum-free Stemline II MK culture of day 6 to 8 BCs, factors compared to TPO and SCF only, 4 day liquid culture
Procedure: BCs from day 6 to 8 blast cultures were purified and plated (1 to 5×10^5/ml) in Stemline II media supplemented with 50 ng/ml TPO, 20 ng/ml SCF and other cytokines to induce BC differentiation toward MKs. Half of the MK culture media was replaced with fresh media every 2 or 3 days.
In order to further direct the differentiation of megakaryocytes, day 6 to day 8 BCs from methylcellulose semi-solid cultures were harvested and then resuspended in serum-free media, i.e., Stemline II supplemented with cytokines for MK culture. The cell count of CD41a+ cells was used as readout to determine the expansion megakaryocytes during the suspension culture, which was calculated by multiplying the percentage of CD41a+(FACS) and total live cell count (Trypan blue exclusion). […] A panel of cytokines and factors were also tested in order to achieve high purity and the total yield of megakaryocytes from BCs. These factors including IL9 and BMP4 were previously reported as megakaryocyte promoting factors in other systems^21:22.
Certain factors, however, did slightly increase the percentage of CD41+ cells (not shown).

[3] = system: hESC derived blast cells (BCs); assay: Blast culture, percentage of CD41a+ cells by FACS; conditions: for percentage of CD41a+ cells at the end of blast culture: TPO 100 ng/ml and SCF 50 ng/ml together, second phase of EB formation and blast colony growth
Procedure: The procedure for EB formation and BC generation were performed as previously reported^17:19. In brief, hESCs at 70% confluency were dissociated by 0.05% trypsin and plated in Ultra-Low dishes (Corning, N.Y.) with Stemline II (Sigma) medium supplemented with BMP-4, VEGF (50 ng/ml). Half of the medium was replaced after 48 hours with fresh medium containing the same cytokines plus bFGF 20 ng/ml, SCF, Flt3 ligand (FL) and Tpo (50 ng/ml each, R&D System). On day 4, EBs were collected and dissociated by 0.05% trypsin. Single-cell suspensions were obtained by passing the cells through 22-gauge needle and through a 40 μm cell strainer, collected by centrifugation, and resuspended in Stemline II media. Live cells were counted by trypan blue exclusion, and 1 to 2×10^5/ml were mixed with blast colony growth medium (BGM) as previously described, and plated in Ultra-Low dishes. Blast colonies were observed 3-4 days after plating, followed by rapid expansion.
Cells from blast cultures or megakaryocyte cultures are monitored routinely by flow cytometry analyses on FACS Caliber. Fluorochrome conjugated antibodies for lineage markers, CD41a, CD42a, CD42b and CD235a (BD Biosciences) were used to characterize the megakaryocyte and erythroid lineages. Antibodies were freshly prepared (1:100 dilution for CD42a and CD42b antibodies; 1:250 dilution for CD41a antibody; 1:2000 for CD235a antibody) in PBS with 5% new born calf serum. Typically 1 to 2×10^5 cells were used for antibody labeling. Cells were stained in 100 μl antibody cocktail for 1 hour on ice, then washed twice with buffer, and resuspended in 250 μl buffer supplemented with 1 μg/ml propidium iodide. To detect the expression level of HLA-ABC, platelets were incubated with a fluorescein isothiocyanate (FITC)-conjugated antihuman HLA-ABC antibody or FITC-conjugated mouse immunoglobulin G (IgG) as a control. The samples were then analyzed using a flow cytometer (FACSCalibur, Becton Dickinson), and data were analyzed using Cellquest or Flowjo software. Cell sorting was performed on BD FACS Aria system at UMASS Medical School Core Facility. […]

Molecule | yields / expansion of CD41a+ megakaryocytes [2] | other results
Nc1ncnc2c1ncn2[C@@H]1O[C@H](COP(=O)(O)OP(=O)(O)O)[C@@H](O)[C@H]1O [ADP] |  | lamellipodia and actin stress fiber formation [1]: enhanced
CNC(=O)[C@H](Cc1c[nH]c2ccccc12)NC(=O)[C@@H](CC(=O)NO)CC(C)C [GM6001] |  | CD41a and CD42b double positive hESC-PLTs (hESC-PLTs): about 15%
C[C@@H](N)[C@H]1CC[C@H](C(=O)Nc2ccncc2)CC1 [Y27632] |  | CD41+ cell count at the end of 4 day culture ([2]; 10 μM during 4 day MK culture): reduced; percentage of polyploid cells ([2]; 10 μM during 4 day MK culture): dramatically increased
IL9: previously reported megakaryocyte promoting factor | did not show obvious effects | 
IL 6: cytokine tested in MK culture | slightly increased | 
SCF: cytokine in MK culture media | significantly increased | percentage of CD41a+ cells at the end of blast culture [3]: increased
TPO: cytokine in MK culture media | not sufficient | percentage of CD41a+ cells at the end of blast culture [3]: increased
VEGF | slightly increased | 
bFGF: growth factor tested in MK culture | slightly increased | 
thrombin |  | lamellipodia and actin stress fiber formation [1]: enhanced
BMP4: previously reported megakaryocyte promoting factor (protein, UniProt P12644 293-408, looked up) Bone morphogenetic protein 4: SPKHHSQRARKKNKNCRRHSLYVDFSDVGWNDWIVAPPGYQAFYCHGDCPFPLADHLNSTNHAIVQTLVNSVNSSIPKACCVPTELSAISMLYLDEYDKVVLKNYQEMVVEGCGCR | did not show obvious effects | 
IL11: cytokine reported to enhance expansion and maturation of megakaryocytes (protein, UniProt P20809 22-199, looked up) Interleukin-11: PGPPPGPPRVSPDPRAELDSTVLLTRSLLADTRQLAAQLRDKFPADGDHNLDSLPTLAMSAGALGALQLPGVLTRLRADLLSYLRHVQWLRRAGGSSLKTLEPELGTLQARLDRLLRRLQLLMSRLALPQPPPDPPAPPLAPPSSAWGGIRAAHAILGGLHLTLDWAVRGLLLLKTRL | slightly increased | ratio of CD41a+ cells in day 6 to 8 blast cultures ([3]; IL-11 20 ng/ml in BGM medium): further increased
